{"source": "patent US9409880B2", "about": "“Modulators of TLR3/dsRNA complex and uses thereof” (The Regents of the University of Colorado, a body corporate, priority 2011, dated 2016)", "format_in_all_cases": "cell-based", "key": {"[1]": {"target": "T1, TLR4 (Mus musculus, UniProt Q9QUK6)", "T1 construct": "endogenous in cells; host or cells: RAW 264.7", "T1 sequence (Q9QUK6 26-835)": "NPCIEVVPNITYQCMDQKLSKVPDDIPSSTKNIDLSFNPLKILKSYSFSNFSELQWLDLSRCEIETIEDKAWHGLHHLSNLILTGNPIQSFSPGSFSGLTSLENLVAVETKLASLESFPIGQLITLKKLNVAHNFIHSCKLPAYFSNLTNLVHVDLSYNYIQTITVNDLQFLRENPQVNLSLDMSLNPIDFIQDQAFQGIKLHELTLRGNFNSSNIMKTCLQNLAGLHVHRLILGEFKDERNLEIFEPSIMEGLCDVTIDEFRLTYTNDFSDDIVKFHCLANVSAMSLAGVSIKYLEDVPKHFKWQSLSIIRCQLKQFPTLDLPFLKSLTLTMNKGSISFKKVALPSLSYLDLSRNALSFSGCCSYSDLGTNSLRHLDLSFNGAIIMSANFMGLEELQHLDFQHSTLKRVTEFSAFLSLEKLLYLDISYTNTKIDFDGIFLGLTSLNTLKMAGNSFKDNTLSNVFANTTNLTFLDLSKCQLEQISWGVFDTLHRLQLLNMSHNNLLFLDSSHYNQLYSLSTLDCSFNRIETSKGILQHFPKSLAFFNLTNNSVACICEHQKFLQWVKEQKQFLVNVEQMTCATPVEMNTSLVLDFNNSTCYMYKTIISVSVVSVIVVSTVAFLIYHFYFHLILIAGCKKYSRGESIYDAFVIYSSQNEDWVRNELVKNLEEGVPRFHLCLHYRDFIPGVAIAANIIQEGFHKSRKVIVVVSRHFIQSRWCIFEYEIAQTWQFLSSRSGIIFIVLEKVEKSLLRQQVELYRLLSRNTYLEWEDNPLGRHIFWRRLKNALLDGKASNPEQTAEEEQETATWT", "T1 sequence (Q9JHF9 19-160 partner)": "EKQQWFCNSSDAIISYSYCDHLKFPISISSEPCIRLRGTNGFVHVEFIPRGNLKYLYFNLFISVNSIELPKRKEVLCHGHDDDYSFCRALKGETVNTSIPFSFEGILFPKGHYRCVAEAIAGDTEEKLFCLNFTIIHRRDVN", "experiment": "RAW264.7 cell nitric oxide TLR selectivity assay (LPS)", "conditions": "27 μM"}, "[2]": {"target": "T2, TLR3 (Mus musculus, UniProt Q99MB1)", "T2 construct": "endogenous in cells; host or cells: RAW 264.7", "T2 sequence (Q99MB1 26-905)": "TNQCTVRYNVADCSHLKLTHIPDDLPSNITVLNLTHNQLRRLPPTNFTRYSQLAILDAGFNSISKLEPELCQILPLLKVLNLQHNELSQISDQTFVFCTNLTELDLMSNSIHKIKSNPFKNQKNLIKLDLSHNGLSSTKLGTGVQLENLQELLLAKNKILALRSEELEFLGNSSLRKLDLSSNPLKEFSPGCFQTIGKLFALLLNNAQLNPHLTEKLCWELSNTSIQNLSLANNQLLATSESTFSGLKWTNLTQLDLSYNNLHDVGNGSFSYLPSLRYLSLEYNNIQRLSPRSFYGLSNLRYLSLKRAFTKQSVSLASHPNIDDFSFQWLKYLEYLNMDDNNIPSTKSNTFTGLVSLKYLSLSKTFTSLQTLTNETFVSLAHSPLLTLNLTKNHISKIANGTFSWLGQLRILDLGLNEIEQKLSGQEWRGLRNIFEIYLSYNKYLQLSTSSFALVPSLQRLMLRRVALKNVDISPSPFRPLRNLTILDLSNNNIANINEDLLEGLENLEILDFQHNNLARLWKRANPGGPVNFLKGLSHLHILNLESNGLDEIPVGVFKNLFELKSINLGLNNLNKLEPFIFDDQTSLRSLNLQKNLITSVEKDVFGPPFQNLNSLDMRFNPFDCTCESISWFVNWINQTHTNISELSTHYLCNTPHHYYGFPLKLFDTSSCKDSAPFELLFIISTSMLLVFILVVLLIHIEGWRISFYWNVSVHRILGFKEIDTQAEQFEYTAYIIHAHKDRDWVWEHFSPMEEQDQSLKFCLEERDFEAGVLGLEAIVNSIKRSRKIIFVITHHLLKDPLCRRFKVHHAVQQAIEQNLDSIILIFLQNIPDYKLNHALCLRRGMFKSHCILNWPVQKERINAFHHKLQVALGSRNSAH", "experiment": "In vitro TLR3 inhibition assay: Poly IC-induced NO production in RAW 264.7 cells", "from_the_text": "The initial hits (Figure A) were first evaluated using the present inventors' previously established high-throughput cell assay of TLR3 activation. See, for example, ACS Med. Chem. Lett. 2010, 1, 194 and Bioorg. Med. Chem. Lett., 2010, 20, 5411. Poly IC (Polyriboinosinic:polyribocytidylic acid) has been reported to selectively activate TLR3 signaling, resulting in the activation of nitric oxide synthase and the production nitric oxide (NO) in RAW 264.7 macrophage cells. The NO level was monitored as an indicator of Poly IC-induced TLR3 activation to evaluate the drug's inhibitory activity.\nRAW 264.7 (Mouse leukaemic monocyte macrophage cell line) cells were grown in RPMI 1640 medium, supplemented with 10% FBS, penicillin (100 U/mL) and streptomycin ([…]). RAW cells were then planted in 96-well plates at 100,000 cells per well and grown for 24 h in the media descried previously at 37° C. in a 5% CO2 humidified incubator. After 24 h, non-adherent cells and media were removed and replaced with fresh RPMI 1640 medium (only RPMI). The adherent macrophages were treated with high molecular weight polyinosine-polycytidylic acid (Poly IC) (10 μg/mL) (Invivogen), an agonist of TLR3, and then added different concentrates of potential inhibitor. Two rows were only treated with Poly IC as an control. Plates were then incubated for an additional 24 h. Following incubation 100 μL of media was removed and added to flat black 96-well microfluor plates (Thermo Scientific, MA, USA). To each well, 10 μL of 2,3-diaminonaphthalene (0.05 mg/mL in 0.62 M aqueous HCl solution) was added and incubated for 15 min in the dark. The reaction was quenched by addition of 5 μL of a 3 M aqueous NaOH solution and the plate was read on Beckman Coulter DTX880 reader (Beckman Coulter, Calif., USA) with excitation at 365 nm and emission at 450 nm. The nitrite (a stable metabolite of nitric oxide) concentration was determined from a nitrite standard curve. The inhibition rate (%) of NO release was determined using the following formula: Inhibition (%)=[Poly IC(OD450)−Compounds (OD450)]/[Poly IC(OD450)−Control (OD450)]×100. The IC50 values for both inhibition and cytotoxicity were determined graphically using software Origin v7.5."}, "[3]": {"target": "T3, TLR2/6 (Mus musculus, UniProt Q9EPW9+Q9QUN7)", "T3 construct": "endogenous in cells; host or cells: RAW 264.7", "T3 sequence (Q9QUN7 25-784)": "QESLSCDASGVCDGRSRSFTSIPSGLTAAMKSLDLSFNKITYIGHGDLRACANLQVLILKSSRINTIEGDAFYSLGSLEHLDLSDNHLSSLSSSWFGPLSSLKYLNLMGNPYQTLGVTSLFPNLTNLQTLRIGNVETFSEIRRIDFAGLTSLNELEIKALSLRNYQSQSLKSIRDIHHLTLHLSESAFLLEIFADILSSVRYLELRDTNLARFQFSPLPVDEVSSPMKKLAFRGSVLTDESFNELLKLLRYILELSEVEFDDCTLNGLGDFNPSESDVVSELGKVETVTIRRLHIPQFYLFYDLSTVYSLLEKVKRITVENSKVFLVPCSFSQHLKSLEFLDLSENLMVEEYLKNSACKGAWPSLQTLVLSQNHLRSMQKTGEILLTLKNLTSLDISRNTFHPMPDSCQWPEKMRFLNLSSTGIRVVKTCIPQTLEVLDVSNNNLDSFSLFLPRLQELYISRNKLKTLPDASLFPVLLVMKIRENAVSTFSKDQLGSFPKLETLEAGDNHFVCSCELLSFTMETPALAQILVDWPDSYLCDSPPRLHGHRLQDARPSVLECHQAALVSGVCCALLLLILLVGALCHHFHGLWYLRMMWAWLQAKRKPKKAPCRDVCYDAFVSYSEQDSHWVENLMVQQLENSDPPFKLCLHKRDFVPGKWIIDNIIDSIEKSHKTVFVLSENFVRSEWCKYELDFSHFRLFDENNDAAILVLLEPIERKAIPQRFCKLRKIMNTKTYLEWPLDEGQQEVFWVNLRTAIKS", "T3 sequence (Q9EPW9 28-795)": "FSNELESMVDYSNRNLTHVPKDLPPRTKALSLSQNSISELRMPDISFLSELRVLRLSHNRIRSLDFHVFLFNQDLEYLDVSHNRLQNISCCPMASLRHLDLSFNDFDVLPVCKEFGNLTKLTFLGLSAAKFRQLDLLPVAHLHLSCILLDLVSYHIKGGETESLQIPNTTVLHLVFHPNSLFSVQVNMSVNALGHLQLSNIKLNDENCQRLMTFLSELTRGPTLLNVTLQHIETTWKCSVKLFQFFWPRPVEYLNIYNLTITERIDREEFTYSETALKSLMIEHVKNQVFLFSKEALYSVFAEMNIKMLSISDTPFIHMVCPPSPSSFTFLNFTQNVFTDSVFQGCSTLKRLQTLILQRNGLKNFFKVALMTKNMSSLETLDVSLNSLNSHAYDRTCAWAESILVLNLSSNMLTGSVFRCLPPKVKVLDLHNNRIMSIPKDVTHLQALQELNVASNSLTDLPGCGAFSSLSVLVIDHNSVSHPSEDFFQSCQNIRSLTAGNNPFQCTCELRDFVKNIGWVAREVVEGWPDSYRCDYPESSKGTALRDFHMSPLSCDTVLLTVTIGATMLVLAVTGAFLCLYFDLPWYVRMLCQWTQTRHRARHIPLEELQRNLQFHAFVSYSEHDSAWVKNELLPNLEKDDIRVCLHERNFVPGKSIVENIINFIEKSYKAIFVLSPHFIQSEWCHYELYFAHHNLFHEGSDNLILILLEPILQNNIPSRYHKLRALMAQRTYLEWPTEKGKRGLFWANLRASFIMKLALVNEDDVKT", "experiment": "RAW264.7 cell nitric oxide TLR selectivity assay (FSL-1)", "conditions": "27 μM"}}, "data": [{"molecule": "O=C(N[C@H](Cc1ccccc1)C(=O)O)c1sc2cc(F)ccc2c1Cl", "note": "[Compound 4a, (R)-2-(3-chloro-6-fluorobenzo[b]thiophene-2-carboxamido)-3-phenylpropanoic acid]", "values": [{"measurement": "effect on TLR4 signaling", "setting": "[1]", "result": "without significantly affecting other TLRs"}, {"measurement": "TLR3 signaling in specificity test", "setting": "[2]; 27 μM, Poly IC", "result": "selectively inhibited TLR3 signaling"}, {"measurement": "increase in potency compared to T5626448", "setting": "[2]; 4a vs T5626448", "result": "~45", "unit": "fold"}, {"measurement": "IC50", "setting": "[2]; Poly IC-induced TLR3 activation, cell assay", "result": "3.44 ± 0.41", "unit": "µM"}, {"measurement": "effect on TLR2/6 signaling", "setting": "[3]", "result": "without significantly affecting other TLRs"}]}]}
